Laboratory results published in article PMC11345841, “Exploring 2-Sulfonylpyrimidine Warheads as Acrylamide Surrogates for Targeted Covalent Inhibition: A BTK Story” (Journal of Medicinal Chemistry, 2024).
Where two headings read alike, the source gives them in different places.

Key:
Experiment in all cases: KINOMEscan ScanTK
Assay type in all cases: binding
[1] = molecular target: T1, ABL1(H396P)-phosphorylated (Homo sapiens, UniProt P00519, H396P)
T1 construct: purchased Eurofins DiscoverX KINOMEscan (scanTK)

FLT3(R834Q) = molecular target: T2, FLT3(R834Q) (Homo sapiens, UniProt P36888, R834Q)
T2 construct: purchased Eurofins DiscoverX KINOMEscan (scanTK)
T2 sequence (P36888 27-993 R834Q): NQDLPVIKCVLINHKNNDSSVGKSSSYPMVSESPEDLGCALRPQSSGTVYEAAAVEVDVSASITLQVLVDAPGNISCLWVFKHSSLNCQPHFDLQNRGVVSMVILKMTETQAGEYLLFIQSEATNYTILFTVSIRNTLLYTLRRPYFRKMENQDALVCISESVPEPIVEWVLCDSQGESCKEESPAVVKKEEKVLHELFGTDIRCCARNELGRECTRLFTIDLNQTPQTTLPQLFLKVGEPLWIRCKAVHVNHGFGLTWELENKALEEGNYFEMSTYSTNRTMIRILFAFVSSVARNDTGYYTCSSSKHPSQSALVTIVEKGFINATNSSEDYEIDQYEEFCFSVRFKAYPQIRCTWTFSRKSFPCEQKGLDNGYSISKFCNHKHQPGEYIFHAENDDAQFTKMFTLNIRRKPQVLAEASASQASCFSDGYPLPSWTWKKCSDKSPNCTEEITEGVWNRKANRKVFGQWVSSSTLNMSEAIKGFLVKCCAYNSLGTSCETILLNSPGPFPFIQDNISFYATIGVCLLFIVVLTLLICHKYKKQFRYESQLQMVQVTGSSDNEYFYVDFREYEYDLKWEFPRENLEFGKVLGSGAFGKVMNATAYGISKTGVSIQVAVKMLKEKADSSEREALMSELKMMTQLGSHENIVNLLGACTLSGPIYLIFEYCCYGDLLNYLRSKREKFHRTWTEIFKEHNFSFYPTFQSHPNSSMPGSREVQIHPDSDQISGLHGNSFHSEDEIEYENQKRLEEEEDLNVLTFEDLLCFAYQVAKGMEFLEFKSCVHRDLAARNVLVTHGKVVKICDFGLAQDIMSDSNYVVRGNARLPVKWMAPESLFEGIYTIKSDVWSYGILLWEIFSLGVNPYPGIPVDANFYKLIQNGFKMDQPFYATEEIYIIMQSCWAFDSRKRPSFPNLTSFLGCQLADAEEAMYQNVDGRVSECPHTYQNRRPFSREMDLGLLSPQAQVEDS

BMX = molecular target: T3, BMX (Homo sapiens, UniProt P51813)
T3 construct: purchased Eurofins DiscoverX KINOMEscan (scanTK)
T3 sequence (P51813 1-675): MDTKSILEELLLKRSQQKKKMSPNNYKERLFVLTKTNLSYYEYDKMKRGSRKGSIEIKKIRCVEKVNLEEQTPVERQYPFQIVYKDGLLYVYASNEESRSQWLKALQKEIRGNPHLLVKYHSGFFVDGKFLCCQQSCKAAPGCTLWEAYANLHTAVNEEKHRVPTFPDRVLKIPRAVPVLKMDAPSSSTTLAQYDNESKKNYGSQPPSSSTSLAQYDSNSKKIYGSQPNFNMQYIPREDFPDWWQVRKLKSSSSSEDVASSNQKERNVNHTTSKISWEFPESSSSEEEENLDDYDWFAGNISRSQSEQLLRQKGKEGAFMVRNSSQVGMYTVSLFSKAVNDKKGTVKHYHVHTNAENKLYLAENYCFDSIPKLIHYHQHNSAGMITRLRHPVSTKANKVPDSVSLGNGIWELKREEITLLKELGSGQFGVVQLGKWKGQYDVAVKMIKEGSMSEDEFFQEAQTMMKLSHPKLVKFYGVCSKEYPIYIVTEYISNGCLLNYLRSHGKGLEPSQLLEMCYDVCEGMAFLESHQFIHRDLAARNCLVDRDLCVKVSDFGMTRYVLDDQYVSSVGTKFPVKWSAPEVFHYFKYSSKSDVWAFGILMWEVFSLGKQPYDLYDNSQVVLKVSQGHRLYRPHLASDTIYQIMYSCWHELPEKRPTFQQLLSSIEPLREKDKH

INSRR = molecular target: T4, INSRR (Homo sapiens, UniProt P14616)
T4 construct: purchased Eurofins DiscoverX KINOMEscan (scanTK)

RET(V804L) = molecular target: T5, RET(V804L) (Homo sapiens, UniProt P07949, V804L)
T5 construct: purchased Eurofins DiscoverX KINOMEscan (scanTK)

[2] = molecular target: T6, ABL1(T315I)-phosphorylated (Homo sapiens, UniProt P00519, T315I)
T6 construct: purchased Eurofins DiscoverX KINOMEscan (scanTK)

EPHA7 = molecular target: T7, EPHA7 (Homo sapiens, UniProt Q15375)
T7 construct: purchased Eurofins DiscoverX KINOMEscan (scanTK)

[3] = molecular target: T8, ABL1(F317I)-nonphosphorylated (Homo sapiens, UniProt P00519, F317I)
T8 construct: purchased Eurofins DiscoverX KINOMEscan (scanTK)

MST1R = molecular target: T9, MST1R (Homo sapiens, UniProt Q04912)
T9 construct: purchased Eurofins DiscoverX KINOMEscan (scanTK)

ERBB2 = molecular target: T10, ERBB2 (Homo sapiens, UniProt P04626); settings: for difference in %Control versus compound Ib at 1 µM / remaining binding at 1 µM: ERBB2
T10 construct: purchased Eurofins DiscoverX KINOMEscan (scanTK)

EGFR = molecular target: T11, EGFR (Homo sapiens, UniProt P00533); settings: for difference in %Control versus reference compound Ib at 1 µM / remaining binding at 1 µM: EGFR; for inhibition at 1 µM: ScanTK, WT EGFR
T11 construct: purchased Eurofins DiscoverX KINOMEscan (scanTK)

TIE1 = molecular target: T12, TIE1 (Homo sapiens, UniProt P35590)
T12 construct: purchased Eurofins DiscoverX KINOMEscan (scanTK)

TIE2 = molecular target: T13, TIE2 (Homo sapiens, UniProt Q02763)
T13 construct: purchased Eurofins DiscoverX KINOMEscan (scanTK)
T13 sequence (Q02763 23-1124): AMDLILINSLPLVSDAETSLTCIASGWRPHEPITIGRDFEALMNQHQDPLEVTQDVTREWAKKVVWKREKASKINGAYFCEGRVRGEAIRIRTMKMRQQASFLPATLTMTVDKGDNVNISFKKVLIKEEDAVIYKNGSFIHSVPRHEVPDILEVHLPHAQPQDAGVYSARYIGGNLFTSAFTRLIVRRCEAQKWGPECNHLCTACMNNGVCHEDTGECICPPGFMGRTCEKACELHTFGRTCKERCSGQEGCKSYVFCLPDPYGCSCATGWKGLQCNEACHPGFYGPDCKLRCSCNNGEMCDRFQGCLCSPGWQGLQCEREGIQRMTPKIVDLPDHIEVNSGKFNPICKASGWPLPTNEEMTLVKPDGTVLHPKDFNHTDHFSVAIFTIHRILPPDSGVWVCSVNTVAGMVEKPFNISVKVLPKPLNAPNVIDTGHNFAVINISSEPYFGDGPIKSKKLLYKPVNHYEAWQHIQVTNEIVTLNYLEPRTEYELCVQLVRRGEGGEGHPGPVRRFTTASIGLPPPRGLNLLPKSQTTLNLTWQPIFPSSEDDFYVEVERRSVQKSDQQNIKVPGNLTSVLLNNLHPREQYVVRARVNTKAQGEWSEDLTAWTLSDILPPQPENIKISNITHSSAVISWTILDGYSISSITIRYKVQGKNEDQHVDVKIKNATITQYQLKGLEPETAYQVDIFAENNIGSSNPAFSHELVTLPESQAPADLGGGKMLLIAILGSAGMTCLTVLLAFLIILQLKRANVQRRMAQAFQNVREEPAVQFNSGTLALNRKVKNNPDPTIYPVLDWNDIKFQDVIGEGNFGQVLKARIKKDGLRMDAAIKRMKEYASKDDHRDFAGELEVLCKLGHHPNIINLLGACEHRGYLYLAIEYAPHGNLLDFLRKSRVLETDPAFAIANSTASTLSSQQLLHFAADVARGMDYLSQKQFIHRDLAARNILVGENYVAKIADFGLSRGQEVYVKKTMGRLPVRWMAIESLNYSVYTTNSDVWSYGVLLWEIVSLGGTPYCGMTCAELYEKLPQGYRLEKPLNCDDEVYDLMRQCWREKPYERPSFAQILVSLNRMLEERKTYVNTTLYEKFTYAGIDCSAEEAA

T7 sequence (Q15375 28-998): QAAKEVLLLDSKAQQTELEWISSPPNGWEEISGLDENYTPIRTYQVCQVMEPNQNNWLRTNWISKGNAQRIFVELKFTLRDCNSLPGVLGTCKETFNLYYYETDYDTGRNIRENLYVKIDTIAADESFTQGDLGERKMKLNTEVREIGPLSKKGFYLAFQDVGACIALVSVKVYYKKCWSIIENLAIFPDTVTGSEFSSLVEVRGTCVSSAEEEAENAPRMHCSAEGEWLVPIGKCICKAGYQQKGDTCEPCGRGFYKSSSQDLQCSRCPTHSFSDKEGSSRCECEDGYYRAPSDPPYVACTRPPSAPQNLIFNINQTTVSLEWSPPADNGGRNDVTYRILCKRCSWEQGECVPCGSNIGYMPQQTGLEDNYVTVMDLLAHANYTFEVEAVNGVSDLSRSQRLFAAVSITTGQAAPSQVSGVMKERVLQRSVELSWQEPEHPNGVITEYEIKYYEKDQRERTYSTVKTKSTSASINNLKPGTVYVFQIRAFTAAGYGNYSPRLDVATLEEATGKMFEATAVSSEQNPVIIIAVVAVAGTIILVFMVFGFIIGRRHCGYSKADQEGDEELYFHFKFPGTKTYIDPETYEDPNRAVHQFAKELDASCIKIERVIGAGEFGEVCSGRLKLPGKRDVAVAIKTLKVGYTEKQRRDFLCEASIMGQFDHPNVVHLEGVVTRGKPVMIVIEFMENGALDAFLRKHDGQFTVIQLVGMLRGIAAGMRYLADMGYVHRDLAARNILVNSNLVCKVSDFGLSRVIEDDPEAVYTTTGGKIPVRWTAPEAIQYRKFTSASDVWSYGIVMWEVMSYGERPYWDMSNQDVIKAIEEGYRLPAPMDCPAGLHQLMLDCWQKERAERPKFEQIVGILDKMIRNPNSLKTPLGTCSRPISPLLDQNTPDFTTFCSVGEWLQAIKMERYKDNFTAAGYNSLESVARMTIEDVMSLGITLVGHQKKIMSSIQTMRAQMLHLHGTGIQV
T11 sequence (P00533 25-1210): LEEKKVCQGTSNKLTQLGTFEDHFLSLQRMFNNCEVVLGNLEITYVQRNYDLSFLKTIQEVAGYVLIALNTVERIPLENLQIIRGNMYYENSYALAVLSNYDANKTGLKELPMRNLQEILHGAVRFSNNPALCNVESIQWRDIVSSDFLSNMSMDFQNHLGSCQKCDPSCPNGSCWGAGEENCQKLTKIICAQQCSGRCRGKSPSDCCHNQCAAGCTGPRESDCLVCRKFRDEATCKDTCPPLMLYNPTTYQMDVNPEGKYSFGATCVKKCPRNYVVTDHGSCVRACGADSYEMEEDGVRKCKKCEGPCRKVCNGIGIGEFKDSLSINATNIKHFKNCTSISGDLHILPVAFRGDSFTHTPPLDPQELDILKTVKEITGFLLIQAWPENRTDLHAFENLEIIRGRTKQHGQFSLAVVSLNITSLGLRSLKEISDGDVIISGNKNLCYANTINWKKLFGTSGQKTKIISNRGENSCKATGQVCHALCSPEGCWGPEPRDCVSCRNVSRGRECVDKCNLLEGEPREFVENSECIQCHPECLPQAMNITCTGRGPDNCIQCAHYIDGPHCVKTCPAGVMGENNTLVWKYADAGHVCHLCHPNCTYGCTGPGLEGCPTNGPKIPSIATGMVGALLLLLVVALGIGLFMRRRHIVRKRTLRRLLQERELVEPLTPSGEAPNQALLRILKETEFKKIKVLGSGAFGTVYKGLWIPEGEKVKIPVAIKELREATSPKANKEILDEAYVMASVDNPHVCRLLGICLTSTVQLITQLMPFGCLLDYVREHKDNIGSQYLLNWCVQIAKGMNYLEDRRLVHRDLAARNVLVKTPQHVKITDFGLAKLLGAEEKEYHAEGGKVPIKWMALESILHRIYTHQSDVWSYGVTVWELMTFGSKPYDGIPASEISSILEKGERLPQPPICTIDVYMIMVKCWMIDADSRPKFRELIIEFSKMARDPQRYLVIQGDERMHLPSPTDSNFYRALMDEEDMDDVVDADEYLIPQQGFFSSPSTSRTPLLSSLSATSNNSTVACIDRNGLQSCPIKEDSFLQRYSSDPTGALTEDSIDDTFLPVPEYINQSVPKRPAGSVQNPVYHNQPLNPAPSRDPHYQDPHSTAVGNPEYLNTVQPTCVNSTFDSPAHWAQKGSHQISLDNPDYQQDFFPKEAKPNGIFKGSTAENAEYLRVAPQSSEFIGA
T5 sequence (P07949 29-1114 V804L): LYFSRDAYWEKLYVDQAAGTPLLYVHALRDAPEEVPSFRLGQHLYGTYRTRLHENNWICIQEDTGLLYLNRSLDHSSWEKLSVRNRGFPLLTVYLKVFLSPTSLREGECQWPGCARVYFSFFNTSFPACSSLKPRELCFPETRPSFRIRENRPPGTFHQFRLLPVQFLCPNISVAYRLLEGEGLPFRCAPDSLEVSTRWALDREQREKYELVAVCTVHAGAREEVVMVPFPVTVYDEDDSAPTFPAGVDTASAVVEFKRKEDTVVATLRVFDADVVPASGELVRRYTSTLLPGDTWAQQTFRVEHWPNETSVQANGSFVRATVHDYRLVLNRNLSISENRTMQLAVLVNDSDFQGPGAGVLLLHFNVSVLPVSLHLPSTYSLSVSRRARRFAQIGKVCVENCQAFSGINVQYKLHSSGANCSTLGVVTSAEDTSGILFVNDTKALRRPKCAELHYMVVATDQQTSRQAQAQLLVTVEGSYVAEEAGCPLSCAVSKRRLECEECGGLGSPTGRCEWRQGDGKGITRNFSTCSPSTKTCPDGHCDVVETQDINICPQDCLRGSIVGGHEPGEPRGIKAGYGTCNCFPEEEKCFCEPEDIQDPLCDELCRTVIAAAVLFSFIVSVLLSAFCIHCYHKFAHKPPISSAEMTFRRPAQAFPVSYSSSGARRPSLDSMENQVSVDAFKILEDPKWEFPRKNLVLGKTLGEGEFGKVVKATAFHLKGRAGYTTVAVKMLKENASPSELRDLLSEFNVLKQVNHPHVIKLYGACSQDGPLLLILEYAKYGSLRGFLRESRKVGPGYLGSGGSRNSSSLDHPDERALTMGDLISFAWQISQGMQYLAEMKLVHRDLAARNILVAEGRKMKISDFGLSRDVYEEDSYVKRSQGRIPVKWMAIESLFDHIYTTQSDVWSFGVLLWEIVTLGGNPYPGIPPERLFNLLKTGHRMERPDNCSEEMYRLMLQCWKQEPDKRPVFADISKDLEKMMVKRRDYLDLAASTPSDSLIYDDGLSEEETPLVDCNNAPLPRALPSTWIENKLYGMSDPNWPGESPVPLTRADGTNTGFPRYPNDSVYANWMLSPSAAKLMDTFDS

Row | Compound | %Control difference versus compound Ib at 1 µM ([1]; @1000nM) [%] | remaining binding at 1 µM ([1]; @1000nM, read-out: %Control) [%] | remaining binding at 1 µM ([1]; read-out: %Control @1000nM) [%] | difference in %Control versus compound Ib at 1 µM (FLT3(R834Q); @1000nM) [%] | remaining binding at 1 µM (FLT3(R834Q); @1000nM, read-out: %Control) [%] | remaining binding at 1 µM (FLT3(R834Q); read-out: %Control @1000nM) [%] | difference in %Control versus compound Ib at 1 µM (BMX; @1000nM) [%] | remaining binding at 1 µM (BMX; @1000nM, read-out: %Control) [%] | remaining binding at 1 µM (BMX; read-out: %Control @1000nM) [%] | difference in %Control versus compound Ib at 1 µM (INSRR; @1000nM) [%] | remaining binding at 1 µM (INSRR; @1000nM, read-out: %Control) [%] | remaining binding at 1 µM (INSRR; read-out: %Control @1000nM) [%] | remaining binding at 1 µM (EPHA7; @1000nM, read-out: %Control) [%] | remaining binding at 1 µM (EPHA7; read-out: %Control @1000nM) [%] | remaining binding at 1 µM ([3]; @1000nM, read-out: %Control) [%] | remaining binding at 1 µM ([3]; read-out: %Control @1000nM) [%] | remaining binding at 1 µM (ERBB2; @1000nM, read-out: %Control) [%] | remaining binding at 1 µM (ERBB2; read-out: %Control @1000nM) [%] | remaining binding at 1 µM (TIE1; @1000nM, read-out: %Control) [%] | remaining binding at 1 µM (TIE1; read-out: %Control @1000nM) [%] | other results
1 | CNC(=O)c1cnc(S(C)(=O)=O)nc1N1CCCC(n2nc(-c3ccc(Oc4ccccc4)cc3)c3c(N)ncnc32)C1 (stereo not shown) [Compound 8d, 4-(3-(4-Amino-3-(4-phenoxyphenyl)-1H-pyrazolo[3,4-d]pyrimidin-1-yl)piperidin-1-yl)-N-methyl-2-(methylsulfonyl)pyrimidine-5-carboxamide] | -1 | 79 | 79 | 29 | 90 | 90 | 20 | 61 | 61 | -8 | 88 | 88 | 99 | 99 | 85 | 85 | 5.5 | 5.5 | 69 | 69 | remaining binding at 1 µM (RET(V804L); @1000nM, read-out: %Control): 93%; remaining binding at 1 µM (RET(V804L); read-out: %Control @1000nM): 93%; difference in %Control versus compound Ib at 1 µM ([2]; @1000nM): 6%; remaining binding at 1 µM ([2]; @1000nM, read-out: %Control): 85%; remaining binding at 1 µM ([2]; read-out: %Control @1000nM): 85%; difference in %Control versus compound Ib at 1 µM (EPHA7; @1000nM): 4%; difference in %Control versus compound Ib at 1 µM ([3]; @1000nM): 33%; remaining binding at 1 µM (MST1R; @1000nM, read-out: %Control): 100%; remaining binding at 1 µM (MST1R; read-out: %Control @1000nM): 100%; difference in %Control versus compound Ib at 1 µM (ERBB2; @1000nM): 5.5%; difference in %Control versus reference compound Ib at 1 µM (EGFR; @1000nM): 16.8%; remaining binding at 1 µM (EGFR; @1000nM, read-out: %Control): 17%; remaining binding at 1 µM (EGFR; read-out: %Control @1000nM): 17%; inhibition at 1 µM (EGFR): 83%; remaining binding at 1 µM (TIE2; @1000nM, read-out: %Control): 74%; remaining binding at 1 µM (TIE2; read-out: %Control @1000nM): 74%
2 | CCOC(=O)c1cnc(S(C)(=O)=O)nc1N1CCC[C@@H](n2nc(-c3ccc(Oc4ccccc4)cc3)c3c(N)ncnc32)C1 [Compound 8c, Ethyl (R)-4-(3-(4-Amino-3-(4-phenoxyphenyl)-1H-pyrazolo[3,4-d]pyrimidin-1-yl)piperidin-1-yl)-2-(methylsulfonyl)pyrimidine-5-carboxylate] | -3 | 77 | 77 | 38 | 99 | 99 | 28 | 69 | 69 | -9 | 87 | 87 | 97 | 97 | 98 | 98 | 48 | 48 | 60 | 60 | remaining binding at 1 µM (RET(V804L); @1000nM, read-out: %Control): 100%; remaining binding at 1 µM (RET(V804L); read-out: %Control @1000nM): 100%; difference in %Control versus compound Ib at 1 µM ([2]; @1000nM): -7%; remaining binding at 1 µM ([2]; @1000nM, read-out: %Control): 72%; remaining binding at 1 µM ([2]; read-out: %Control @1000nM): 72%; difference in %Control versus compound Ib at 1 µM (EPHA7; @1000nM): 2%; difference in %Control versus compound Ib at 1 µM ([3]; @1000nM): 46%; remaining binding at 1 µM (MST1R; @1000nM, read-out: %Control): 98%; remaining binding at 1 µM (MST1R; read-out: %Control @1000nM): 98%; difference in %Control versus compound Ib at 1 µM (ERBB2; @1000nM): 48%; difference in %Control versus reference compound Ib at 1 µM (EGFR; @1000nM): 42.8%; remaining binding at 1 µM (EGFR; @1000nM, read-out: %Control): 43%; remaining binding at 1 µM (EGFR; read-out: %Control @1000nM): 43%; inhibition at 1 µM (EGFR): 57%; remaining binding at 1 µM (TIE2; @1000nM, read-out: %Control): 90%; remaining binding at 1 µM (TIE2; read-out: %Control @1000nM): 90%
3 | Cc1cnc(S(C)(=O)=O)nc1N1CCCC(n2nc(-c3ccc(Oc4ccccc4)cc3)c3c(N)ncnc32)C1 (stereo not shown) [Compound 8a, 1-(1-(5-Methyl-2-(methylsulfonyl)pyrimidin-4-yl)piperidin-3-yl)-3-(4-phenoxyphenyl)-1H-pyrazolo[3,4-d]pyrimidin-4-amine] | 4 | 84 | 84 | 9 | 70 | 70 | -3 | 38 | 38 | -2 | 94 | 94 | 97 | 97 | 81 | 81 | 53 | 53 | 89 | 89 | remaining binding at 1 µM (RET(V804L); @1000nM, read-out: %Control): 89%; remaining binding at 1 µM (RET(V804L); read-out: %Control @1000nM): 89%; difference in %Control versus compound Ib at 1 µM ([2]; @1000nM): -9%; remaining binding at 1 µM ([2]; @1000nM, read-out: %Control): 70%; remaining binding at 1 µM ([2]; read-out: %Control @1000nM): 70%; difference in %Control versus compound Ib at 1 µM (EPHA7; @1000nM): 2%; difference in %Control versus compound Ib at 1 µM ([3]; @1000nM): 29%; remaining binding at 1 µM (MST1R; @1000nM, read-out: %Control): 100%; remaining binding at 1 µM (MST1R; read-out: %Control @1000nM): 100%; difference in %Control versus compound Ib at 1 µM (ERBB2; @1000nM): 53%; difference in %Control versus reference compound Ib at 1 µM (EGFR; @1000nM): 52.8%; remaining binding at 1 µM (EGFR; @1000nM, read-out: %Control): 53%; remaining binding at 1 µM (EGFR; read-out: %Control @1000nM): 53%; inhibition at 1 µM (EGFR): 47%; remaining binding at 1 µM (TIE2; @1000nM, read-out: %Control): 91%; remaining binding at 1 µM (TIE2; read-out: %Control @1000nM): 91%
4 | C=CC(=O)N1CCC[C@@H](n2nc(-c3ccc(Oc4ccccc4)cc3)c3c(N)ncnc32)C1 [Compound 1g, Ibrutinib, reference compound] | – | 80 | 80 | – | 61 | 61 | – | – | – | – | – | – | 95 | 95 | 52 | 52 | 0 | 0 | 57 | 57 | inhibition at 1 µM (ERBB2; ScanTK, 1 μM): > 99%
